{"source": "patent US20190211099A1", "about": "“METHODS AND COMPOSITIONS FOR TREATING CANCER WITH SIGLEC-9 ACTIVITY MODULATORS” (KING'S COLLEGE LONDON, priority 2016, published 2019)", "assay_type_in_all_cases": "cell-based, human", "key": {"[1]": {"test_system": "MUC1-ST educated monocytes and macrophages", "experiment": "Secretion of PAI-1 and M-CSF from MUC1-ST educated monocytes and macrophages with PD98059 or verapamil", "description": "ELISAs for IL-6, IL-12p70, TGF-β1, PAI-1, M-CSF, EGF, SHP2, phospho-SHP2 (Biotechne) were all carried out as per manufacturer's instructions.\nTo explore this, the secretion of PAI-1 and M-CSF from MUC1-ST educated monocytes and macrophages was measured following treatments with 1 μM PD98059 or 20 μM verapamil for 20 minutes at 37° C., where indicated."}, "[2]": {"test_system": "CD8+ T cells", "experiment": "Co-culture of MUC1-ST educated M-CSF macrophages with CD3/CD28 stimulated autologous T cells", "details": "antibody present", "description": "In addition, primary monocytes were induced to differentiate to macrophages in the presence of MUC1-ST and then co-cultured for 48 hours with CD3/CD28 stimulated autologous CD8+ or CD4+ T cells. T cell proliferation and CD69/CD25 cell surface expression were measured using flow cytometry."}, "[3]": {"test_system": "monocyte derived dendritic cells", "experiment": "Differentiation of monocytes into dendritic cells", "details": "10 μg/10^6 cells anti-Siglec-9 before MUC1-ST; 10 μg/ml anti-IL-6Rα every 2 days", "description": "To differentiate monocytes into macrophages, CD14+ cells were plated at a concentration of 1×10^6/mL in AIM V medium (Lonza) with either 50 ng/mL recombinant human M-CSF or 50 ng/mL recombinant human GM-CSF (Bio-Techne). The cytokines were added every 3 days. The cells were incubated at 37° C., 5% CO2 for 7 days to fully differentiate, before being characterized as macrophages via phenotypic flow cytometric analysis. To differentiate monocytes into dendritic cells (moDC), CD14+ cells were plated at a concentration of 1×10^6/mL in AIM V medium with 1500 U/mL recombinant human IL-4 (Bio-Techne) and 400 U/mL human GM-CSF (Bio-Techne) for 6 days to fully differentiate, before being characterized as immature DCs via phenotypic flow cytometric analysis (Epics XL, Beckman Coulter or FACSCalibur, BD Biosciences plus WinMDI or Cellquest software). MoDCs were matured using 1 μg/mL LPS for 24 hours.\nIn addition, the effects of MUC1-ST on the differentiation of monocytes into dendritic cells were assessed. Briefly, monocytes were treated with MUC1-ST on day 0 and differentiated into immature dendritic cells (DCs) using IL-4 (1500 U/mL) and GM-CSF (400 U/mL) in AIM-V media for 6 days. Immature DCs were matured using 1 μg/mL LPS for 24 hours. […]"}, "[4]": {"test_system": "M-CSF macrophages differentiated with LPS and IFNγ", "experiment": "Differentiation of monocytes into M(LPS+IFNγ) macrophages: CD86 and IL-12", "details": "blocking antibodies", "description": "Both the cell phenotype staining and neutralization studies described in the Examples were performed using the following antibodies (all anti-human): Siglec-9 (Biotechne; 191240), Siglec-9 FITC (Biotechne; 191240), Siglec-3 (Biotechne; 6C5/2), Siglec-7 (Biotechne; AF1138), Siglec-3 FITC (BD; P67.6), Siglec-7 PE (Biolegend; 6-434), Siglec-10 PE (Biolegend; 5G6), Siglec-1 (abcam; 7D2), HLA-DR FITC (Beckman Coulter; IM0463U), CD16 FITC (Biolegend; B73.1), CD14 FITC (BD 555397), CD69 PE (Beckman Coulter; IM1943), CD25 FITC (ABX228FITC), CD86 PE (Beckman Coulter; IM2729U), CD40 FITC (BD 555588), CD83 PE (Beckman Coulter; IM2218), CD163 PE (Biolegend; GHI/61), CXCR1 FITC (BD Pharmongen; 551126), CD45 PC5 (Beckman Coulter; IM2653U), CD206 PE (ebioscience; 19.2), PD-L1 PE (Biolegend; 29E.2A3), CD36 (Santa Cruz; H-300), TGFbetaRII (Bio-Techne; AF-241), IL-6Rα (Tocilizumab; Roche. A generous gift from Dr. Valerie Corrigall). […] At least 1×10^4 events were evaluated using either Epics XL, (Beckman Coulter) or FACSCalibur (BD Biosciences) flow cytometers. […]\nGiven that IL-6 and NO are known differentiation modulators (Oosterhoff et al. (2012) ONCOIMMUNOLOGY 1: 649-658; Bogdan (2015) TREND IMMUNOL. 36: 161-178) the effects of MUC1-ST on the differentiation of monocytes into macrophages was assessed. […]"}, "[5]": {"test_system": "allogeneic CD8+ T cells", "experiment": "Co-culture of MUC1-ST treated macrophages with allogeneic CD8+ T cells", "details": "MEK signalling inhibited in the macrophages (FIG. 13K)", "description": "Thereafter, the effects of MUC1-ST educated macrophages on T cell function were analyzed. Macrophages treated with MUC1-ST were co-cultured with eFluor® 670 labelled allogeneic CD8+ T cells in the presence of absence of anti-Siglec-9 antibody or isotype control. Indeed, macrophages that had been educated with MUC1-ST were decreased in their ability to stimulate the proliferation of allogeneic CD8 T cells (FIG. 11E). […] (FIG. 11F). This profile of expression and functional activity is indicative of tumor-associated macrophages (TAMs), which play a role in promoting tumor progression (Noy et al. (2014) IMMUNITY 41: 49-61; Sousa et al. (2015) BREAST CANCER RES. 17: 101; Qian et al. (2010) CELL 141: 39-45)."}, "[6]": {"test_system": "monocytes from PBMCs", "experiment": "MUC1-ST mediated TAM formation in monocytes from PBMCs, 7 day serum-free culture", "details": "PD98059 at 10 μM", "description": "To further explore the role of MUC1-ST in inducing a TAM-like phenotype, monocytes from PBMCs were plated in serum-free medium, incubated with MUC1-ST or PBS, and cultured for 7 days.\nIntracellular calcium flux can lead to activation of the MEK/ERK pathway (Christo et al. (2015) IMMUNOL. AND CELL BIOLOGY 93: 694-704). […] Furthermore, treatment with the MEK inhibitor PD98059 at 10 μM inhibited MUC1-ST mediated TAM formation in monocytes (FIGS. 12B, 12D-12E)."}, "[7]": {"test_system": "THP-1 cells", "experiment": "PAI-1, M-CSF and kynurenine in supernatants of differentiated THP-1 cells", "details": "THP-1; PD98059", "description": "THP-1 cells were cultured at a concentration of 1×10^6/mL in AIM V medium. Cells were differentiated using […] phorbol 12-myristate 13-acetate (PMA) on day 0 and 100 ng/mL LPS on day 3 in the presence or absence of 100 μg/mL MUC1-ST or MUC1-T. Cell supernatants were harvested on day 5 and PAI-I concentration measured by ELISA.\nGiven that IDO catalyzes the rate-limiting step in the metabolism of tryptophan, the tryptophan metabolite kynurenine was detected as follows. 604, supernatant was mixed with 304, 30% trichloroacetic acid (TCA) and incubated for 30 minutes at 50° C. The supernatant was spun at 3000×g and 50 μL was harvested and mixed with 50 μL freshly prepared Ehrlich Reagent (2% p-dimethylaminobenzaldehyde in glacial acetic acid). After 10 minutes optical density (O.D.) was measured at 492 nm, and concentrations were calculated against a kynurenine standard curve. An increase in the tryptophan metabolite kynurenine was observed (FIG. 11D).\nThe intracellular effects of MUC1-ST binding to Siglec-9 were further explored in the monocytic cell line, THP-1. THP-1 cells were cultured for three days at a concentration of 1×10^6/mL in AIM V medium and differentiated using […] phorbol 12-myristate 13-acetate (PMA) in the presence or absence of 100 μg/mL MUC1-ST. […] THP-1 cells were further treated with DMSO or the MEK/ERK inhibitor PD98059 at 1004, and the concentration of PAI-1, M-CSF and kynurenine in cell supernatants were measured as described above. […] This increase in concentration was blocked by the MEK/ERK inhibitor PD98059 (FIG. 4I)."}, "[8]": {"details": "20 μM verapamil, 20 minutes at 37° C."}, "[9]": {"details": "1 μM PD98059, 20 minutes at 37° C."}}, "data": [{"compound": "COc1ccc(CCN(C)CCCC(C#N)(c2ccc(OC)c(OC)c2)C(C)C)cc1OC", "note": "(stereo not shown) [verapamil]", "values": [{"measurement": "secretion of M-CSF", "setting": "[1]; [8]", "value": "significantly inhibited"}, {"measurement": "secretion of PAI-1", "setting": "[1]; [8]", "value": "significantly inhibited"}]}, {"compound": "Tocilizumab [anti-IL-6Rα, reference compound]", "values": [{"measurement": "reversal of the inhibition of CD8+ T cell activation", "setting": "[2]", "value": "could be reversed"}, {"measurement": "reversal of the effect of MUC1-ST on differentiation of dendritic cells", "setting": "[3]", "value": "significantly reverse"}, {"measurement": "rescue of MUC1-ST induced lowering of CD86 and IL-12", "setting": "[4]", "value": "partially rescued"}]}, {"compound": "COc1cccc(-c2cc(=O)c3ccccc3o2)c1N", "note": "[PD98059, reference compound]", "values": [{"measurement": "secretion of M-CSF", "setting": "[1]; [9]", "value": "significantly inhibited"}, {"measurement": "secretion of PAI-1", "setting": "[1]; [9]", "value": "significantly inhibited"}, {"measurement": "repression of T cell proliferation by MUC1-ST treated macrophages", "setting": "[5]", "value": "could be overcome"}, {"measurement": "MUC1-ST mediated TAM formation in monocytes", "setting": "[6]", "value": "inhibited"}, {"measurement": "MUC1-ST induced increase in PAI-1, kynurenine and M-CSF concentration", "setting": "[7]", "value": "blocked"}]}]}
